System: iPSC-fRPE cells
Assay: Compound screen for RPE pigmentation in iPSC-fRPE cells (light absorbance at 510 nm)
Assay type: cell-based, human
Details: for Relative Pigmentation: test compound 5 μM in 0.1% DMSO, 32 days, absorbance at 510 nm, relative to plate internal DMSO controls (control = 1); for pigmentation of RPE cells / activity, result in words: qualitative statement
Experimental: Induced pluripotent stem cell-derived fetal RPE (iPSC-fRPE) cells acquired from the University of California, Santa Barbara, were generated from human fetal RPE cells that were isolated and reprogramed to iPSC, then differentiated and sorted for cellular markers to collect RPE progenitors. Vials were transported frozen on dry ice and stored in minus 80° C.
For the phenotypic screens, iPSC-fRPE cells were thawed and cultured in Matrigel-coated flasks with N1VA media containing 1×MEM solution supplemented with 2.2 g/L Sodium Bicarbonate, 0.25 mg/ml Taurine, 0.02 ug/ml Hydrocortisone, 0.013 ug/ml Triiodo Thyronine, 0.1 ug/ml Lipoic acid, 1% MEM Non-Essential Amino Acids, 1% Penicillin/Streptomycin, 2% Neurocult SM1 supplement and 1% N1 supplement. For the initial cultures, Thiazovivin was added to the media at 2 uM for the first 24 hr of incubation, after which the media was replaced with fresh N1VA media for additional three-day incubation at 37° C. with 5% CO2.
iPSC-fRPE cells were plated with N1VA media at a density of 10,000 cells per well in Matrigel-coated 96-well plates and cultured for 24 hr prior to the treatment with test compounds at a final concentration of 5 μM in 0.1% DMSO. Internal controls for each test plate were (a) 0.1% DMSO as a negative control and (b) 0.1% DMSO+10 ng/ml human recombinant bFGF (STEMCELL) as a positive control. To identify hits that promote RPE pigmentation, cells were maintained for a period of 32 days and treated with medium containing the test or control compounds according to the media exchange regimen (FIG. 1). The degree of pigmentation was quantified by measuring the light absorbance at 510 nm with Cytation5 imaging reader (BIOTEK). Compounds that increased the normalized absorbance endpoint by more than three standard deviations over the average DMSO readout per plate were considered as hits. Pigmentation values are finally reported relative to plate internal DMSO controls.

Compound | Relative Pigmentation | pigmentation of RPE cells / activity, result in words
O=C(Nc1ccc(-c2cnco2)c(Cl)c1)C1Cc2ccccc2CO1 (racemic) [Compound 3, N-(3-chloro-4-(oxazol-5-yl)phenyl)isochromane-3-carboxamide] | 1.66 | 
O=C(Nc1ccc(-c2cnco2)c(Cl)c1)C1CCOc2ccccc21 (racemic) [Compound 4, N-(3-chloro-4-(oxazol-5-yl)phenyl) chromane-4-carboxamide] | 2.65 | 
O=C(Nc1ccc(-c2cnco2)c(Cl)c1)C1CCc2ccccc21 (racemic) [Compound 6, N-(3-chloro-4-(oxazol-5-yl)phenyl)-2,3-dihydro-1H-indene-1-carboxamide] | 1.86 | 
O=C(Nc1ccc(-c2cnco2)c(Cl)c1)C1COc2ccccc2C1 (single isomer, unassigned; (+)) [Compound 2, (+)-N-(3-chloro-4-(1,3-oxazol-5-yl)phenyl)chromane-3-carboxamide] | 1.68 | 
O=C(Nc1ccc(-c2cnco2)c(Cl)c1)C1COc2ccccc2C1 (single isomer, unassigned; (-)) [Compound 1, (−)-N-(3-chloro-4-(1,3-oxazol-5-yl)phenyl)chromane-3-carboxamide] | 3.05 | excellent results
O=C(Nc1ccc(-c2cnco2)c(Cl)c1)C1Cc2ccccc2C1 [Compound 7, N-(3-chloro-4-(oxazol-5-yl)phenyl)-2,3-dihydro-1H-indene-2-carboxamide] | 2.92 | excellent results
N-(3-chloro-4-(oxazol-5-yl)phenyl)-1,2,3,4-tetrahydronaphthalene-2-carboxamide [Compound 5] | 1.18 | 

— patent US12630542B2, “Compounds and their use as therapeutically active substances in the treatment and/or prevention of diseases involving the retinal pigment epithelium” (ENDOGENA THERAPEUTICS, INC., priority 2020, dated 2026)
